Measurements as given in the CheMixHub drug solubility set.

Test: xn = mol fraction of the nth substance listed, in the solute-free solvent

CC(C)C(=O)Nc1ccc([N+](=O)[O-])c(C(F)(F)F)c1 + CC#N + O
solubility (g/100 g solution)
Settings | 278.15 K | 283.15 K | 288.15 K | 293.15 K | 298.15 K | 303.15 K | 308.15 K | 313.15 K | 318.15 K | 323.15 K
x2 = 0.04651 | 0.0051 | 0.007 | 0.00931 | 0.0126 | 0.0169 | 0.0223 | 0.0298 | 0.0389 | 0.0503 | 0.0645
x2 = 0.0989 | 0.0498 | 0.0667 | 0.0861 | 0.112 | 0.148 | 0.193 | 0.248 | 0.313 | 0.402 | 0.508
x2 = 0.1583 | 0.303 | 0.387 | 0.487 | 0.609 | 0.767 | 0.951 | 1.17 | 1.44 | 1.74 | 2.11
x2 = 0.2264 | 1.08 | 1.36 | 1.68 | 2.08 | 2.57 | 3.16 | 3.86 | 4.68 | 5.62 | 6.78
x2 = 0.3051 | 3.19 | 3.94 | 4.76 | 5.74 | 6.94 | 8.26 | 9.78 | 11.5 | 13.6 | 15.8
x2 = 0.397 | 6.71 | 8.14 | 9.68 | 11.6 | 13.8 | 16.2 | 19.1 | 22.2 | 25.3 | 28.7
x2 = 0.506 | 12.4 | 14.9 | 17.7 | 20.4 | 23.6 | 27.3 | 31.1 | 35.1 | 39.3 | 43.6
x2 = 0.6372 | 18.2 | 21.8 | 25.4 | 29.4 | 33.6 | 38 | 42.9 | 47.8 | 52.8 | 57.8
x2 = 0.798 | 24.1 | 28.7 | 33.3 | 38 | 43.2 | 48.7 | 54 | 59.6 | 64.5 | 69.8

CC(C)C(=O)Nc1ccc([N+](=O)[O-])c(C(F)(F)F)c1 + CC(C)=O + CC(C)O
solubility (g/100 g solution)
Settings | 278.15 K | 283.15 K | 288.15 K | 293.15 K | 298.15 K | 303.15 K | 308.15 K | 313.15 K | 318.15 K | 323.15 K
x2 = 0.1 | 25.4 | 27.7 | 30.1 | 33.4 | 37.2 | 41 | 44.5 | 48.4 | 53.4 | 59
x2 = 0.2 | 31.8 | 34.1 | 37 | 40.1 | 44.1 | 48 | 52 | 55.4 | 58.7 | 61.9
x2 = 0.3 | 35.7 | 39 | 42 | 45.1 | 48.5 | 52.2 | 55.4 | 58.4 | 61.4 | 64.6
x2 = 0.4 | 38.8 | 42.4 | 45.5 | 48.8 | 52.2 | 55.7 | 59.1 | 62.2 | 65 | 68
x2 = 0.5 | 42.2 | 45.7 | 48.9 | 52.2 | 55.5 | 58.8 | 61.7 | 65 | 68.2 | 71.2
x2 = 0.6 | 44.1 | 47.5 | 51.6 | 54.6 | 57.9 | 61.1 | 63.8 | 67.1 | 70.5 | 73.9
x2 = 0.7 | 47.6 | 50.5 | 54.4 | 57.4 | 60.6 | 64 | 66.9 | 70.1 | 73.3 | 76.3
x2 = 0.8 | 49.3 | 52.8 | 56.5 | 59.7 | 62.9 | 66.1 | 68.9 | 72 | 75.2 | 78.1
x2 = 0.9 | 51 | 54.5 | 58 | 61.3 | 64.7 | 67.9 | 71.1 | 74 | 76.8 | 79.6
